The text below walks through data of patent US10927178B2, “Anti-CXCR4 antibodies and antibody-drug conjugates” (PFIZER INC., priority 2013, dated 2021).

Assay [1] has as its system JVM-13-Luc cells. Briefly: Systemic JVM-13-Luc CLL model. The format is in vivo, mouse. The conditions noted are these: 10 mg/kg s.c. once a week. As for the experimental part: Anti-tumor activity of CXCR4 antibody was further investigated in a disseminated intravenous Chronic Lymphocytic Leukemia (CLL) model. The human JVM-13 tumor cell line stably transfected to express the luciferase gene was cultured at 37° C. in a 5% CO2 incubator in RPMI 1640 media containing 10% fetal bovine serum and […] Puromycin. The model was established by injecting 1×10^6 JVM-13-Luc cells into female 6-8 week old SCID Beige mice via tail vein. 21 days post-cell implantation mice were assigned into treatment groups (10 animals per group) based on bioluminescence (BLI) reading. […] Rituximab, an anti-CD20 Ab, approved for treatment of CLL patients, was used as positive control. Rituximab was dosed at 10 mg/kg in a solution of sterile PBS once a week, s.c. Tumor burden was assessed using Xenogen IVIS 200 imaging system. Mice were imaged every 7 days in a ventral position and whole body bioluminescence was determined using Xenogen Living Image software. When mice began to show hind limb paralysis or reached other humane endpoints they were euthanized. Both tumor burden (by bioluminescence) and survival were evaluated as endpoints.

For assay [2], the system named is Ramos cells. The experiment in a line: Cell-death induction in Ramos cells (Annexin V/PI). It counts as cell-based, human. The settings on record: positive control, 24 hrs, untreated cells approximately 30%. As for the experimental part: Anti-CXCR4 antibodies were examined for the ability to induce cell-death in the human Non-Hodgkin's Lymphoma Ramos cell line. Cells were cultured to sub-confluency in RPMI 1640 media containing 10% fetal bovine serum and […] Glutamine at 37° C. in a CO2 incubator. Cells were seeded in growth media in a 48-well plates at 2.5×10^6 cells/mL. Anti-CXCR4 antibodies, diluted in PBS to concentrations indicated, were added to the cells and incubated for 24 hrs at 37° C. Cell-death was measured by Annexin V-PE and propidium iodide (PI) fluorescent signal measured in a LSRII Flow Cytometer (BD Biosciences). Total cell-death was determined by adding the Annexin V+/PI+(late) population with the Annexin V+/PI-(early) population.
The Fab is a single chain antibody (monovalent) and contains the immunoglobulin variable regions which are part of the antigen-binding site and the first immunoglogulin constant region. This fragment was obtained by digestion of the 3G10 antibody with the proteolytic enzyme papain. The F(ab′)2 was generated by pepsin digestion to remove most of the Fc region while leaving intact some of the hinge region. F(ab′)2 fragments have two antigen-binding Fab portions linked together by disulfide bonds, and therefore are bivalent.

For the compound “Rituximab: anti-CD20 Ab, approved for treatment of CLL patients, used as positive control [reference compound]”, the “tumor burden (luminescence) compared to isotype control antibody” value in assay [1] (from 21 days post-implantation) is reported as “significantly reduced tumor burden”. The same compound came in with a median survival in assay [1] (isotype control 32.5 days) of 45 days. For the same compound, in assay [1] (p<0.0001), the “survival compared to isotype control Ab” value is given as “Significant increase in survival”.

Consider `CN[C@@H]1C[C@H]2O[C@@](C)([C@@H]1OC)n1c3ccccc3c3c4c(c5c6ccccc6n2c5c31)C(=O)NC4` [Staurosporin, reference compound], for which, in assay [2], the cell-death entry is listed as “approximately 60%”.
